Measured values reported in patent US20070092469A1, “Topically applied Glucosamine Sulfate and all its related, precursor, and derivative compounds significantly increases the skin's natural produciton of hyaluronic acid for the rejuvenation of healthier younger-looking skin; while PhosphatidylCholine is required to replace its deficiency caused by …” (priority 2005, published 2007).
Where two headings read alike, the source gives them in different places.

Columns and labels:
[1] = simple diffusion, not active transport; cited from earlier work
[2] = topical; cited from earlier work
[3] = topical; cited from earlier work; remark: listed apart in the source
[4] = tested on: skin's Hyaluronic Acid; assay: Live clinical human experiments, one side of face, neck and hands treated, other side base (placebo) lotion; format: in vivo; conditions: 5% concentration, topical, versus placebo lotion on other side
Excerpt: In examining the prior art we found our patent to be unique: • 1. U.S. Pat. No. 5,391,373 (Mausner) is distinguished by its failure to use an adequate amount of Glucosamine in order to achieve the substrate concentration for the enzyme Hyaluronate Synthase to produce a sufficient quantity and concentration of Hyaluronic Acid necessary to achieve any meaningful change in the texture of the skin, including its ability to hold onto sufficient water to increase internal hydration. Their patent claims: “1. (d) about 0.001% to 0.1% of a carbohydrate-based complex comprising dextran, glycine, and Glucosamine;”. […] Their minimum range amount claimed is calculated as: 0.001% (0.00001) times 5% (0.05%) equals 0.0000005, which is 0.00005% and equals 5 one-hundred-thousandths of a gram per 100 milliliters, and is totally inconsequential for having any positive effect. […]

[5] = oral dose of Glucosamine Sulfate, humans; cited from earlier work
[6] = oral, dog; cited from earlier work
[7] = tested on: solar lentinges; conditions: cited from earlier work

For `CC(=O)N[C@H]1C(O)O[C@H](CO)[C@@H](O)[C@@H]1O` (stereo partly drawn) [N-acetylglucosamine, N-acetyl-D-Glucosamine], the oral absorption [1] is given as “not well absorbed orally” and the “absorption through the skin” value [2] is given as “very poorly absorbed through the skin”.
In the case of “hyaluronic acid [600,000 Dalton molecular weight hyaluronic acid]”, the “absorption into the skin” value [3] is listed as “only a few percent”.
In the case of `N[C@H]1C(O)O[C@H](CO)[C@@H](O)[C@@H]1O.O=S(=O)(O)O` (stereo partly drawn) [Glucosamine Sulfate], the “production of the skin's Hyaluronic Acid” value [4] is listed as “markedly enhancing”, the absorbed [5] is listed as “about 90%” and the “absorption through the skin” value [2] is listed as “much better absorbed into the body via the skin”.
In the case of `N[C@@H]1[C@@H](O)[C@H](O)[C@@H](CO)O[C@@H]1O` [Glucosamine, 2-amino-2-deoxy-alpha-D-glucose], the absorbed [6] is listed as 87%.
For “hyaluronic acid [250,000 Dalton sized hyaluronic acid]”, the “absorption into the skin” value [3] is listed as “very low percentage”.
In the case of Ascorbyl Glucosamine, the “effect on skin ("liver spot") pigmentation” value [7] is listed as “no positive effects”.
